# Source: patent publication US11725036B2, “Modified lipidated relaxin B chain peptides and their therapeutic use” (Sanofi, priority 2018, dated 2023)
# Starred links: 1 amine or outer side, 2 acyl side, 3 side chain; linkers in the order of their positions; H or OH if unused. Non-standard residues stand in square brackets, D forms with d. Residues, ends and D or L forms follow the SMILES beside them. Groups on a side chain read outwards from the residue. *: point of attachment. X1 = CCCCCCCCCCCCCCCC(=O)N[C@@H](CCC(=O)N[C@@H](CCC(=O)N[C@@H](CCC(=O)NCCCOCCOCCOCCCNC(=O)CCC(=O)NCCCOCCOCCOCCCNC(=O)CCC(=O)NCCCOCCOCCOCCCN*)C(=O)O)C(=O)O)C(=O)O; X14 = CCCCCCCCCCCCCCCCCC(=O)N[C@@H](CCC(=O)N[C@@H](CCC(=O)N[C@@H](CCC(=O)N[C@@H](CCC(=O)NCCCOCCOCCOCCCNC(=O)CCC(=O)NCCCOCCOCCOCCCN*)C(=O)O)C(=O)O)C(=O)O)C(=O)O; X4 = CCCCCCCCCCCCCCCCCC(=O)N[C@@H](CCC(=O)N[C@@H](CCC(=O)N[C@@H](CCC(=O)NCCCOCCOCCOCCCNC(=O)CCC(=O)NCCCOCCOCCOCCCN*)C(=O)O)C(=O)O)C(=O)O; Suc = O=C(CCC(=O)[*:2])[*:1]; αMeK = C[C@](N)(CCCCN)C(=O)O; Aib = CC(C)(N)C(=O)O
# Biological target: T1, RXFP1 (Homo sapiens, UniProt Q9HBX9)
# T1 construct: OVCAR5 cells expressing endogenous RXFP1; endogenous in cells; host or cells: OVCAR5
# T1 sequence (Q9HBX9 1-757): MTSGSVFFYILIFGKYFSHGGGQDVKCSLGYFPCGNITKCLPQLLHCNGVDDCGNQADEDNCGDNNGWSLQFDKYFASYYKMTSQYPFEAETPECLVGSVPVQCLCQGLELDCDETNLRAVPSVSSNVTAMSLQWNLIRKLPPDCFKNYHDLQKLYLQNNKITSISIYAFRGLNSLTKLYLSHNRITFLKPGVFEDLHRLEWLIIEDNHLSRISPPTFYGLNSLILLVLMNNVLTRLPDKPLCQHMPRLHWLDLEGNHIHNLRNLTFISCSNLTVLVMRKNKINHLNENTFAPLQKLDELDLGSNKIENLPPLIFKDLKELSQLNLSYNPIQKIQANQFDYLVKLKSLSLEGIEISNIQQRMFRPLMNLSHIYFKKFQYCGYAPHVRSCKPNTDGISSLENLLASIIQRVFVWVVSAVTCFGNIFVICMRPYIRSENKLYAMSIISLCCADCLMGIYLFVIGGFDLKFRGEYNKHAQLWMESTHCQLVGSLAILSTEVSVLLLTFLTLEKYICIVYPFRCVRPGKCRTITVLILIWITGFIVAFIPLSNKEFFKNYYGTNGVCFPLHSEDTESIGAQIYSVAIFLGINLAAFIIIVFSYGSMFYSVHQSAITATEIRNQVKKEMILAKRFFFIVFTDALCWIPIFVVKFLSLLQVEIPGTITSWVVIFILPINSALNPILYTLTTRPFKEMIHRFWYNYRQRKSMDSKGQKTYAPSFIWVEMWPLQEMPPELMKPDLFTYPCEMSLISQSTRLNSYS
# Experiment: OVCAR5 cAMP assay (HTRF)
# Assay type: cell-based
# Conditions: for EC50: OVCAR 5 cells expressing endogenous RXFP1, cAMP readout; for Emax: OVCAR 5 cells, maximal cAMP relative to H2-relaxin
# Text: OVCAR5 cells expressing endogenous RXFP1 were used to test RXP1 agonist properties of peptides of the invention, and in particular of the peptides of sequence SEQ ID NO: 1-97.
# Since RXFP1 is a Gs coupled GPCR, cAMP was used as readout of RXFP1 activation.
# Isobutyl Methyl Xanthine (IBMX) was used to inhibit phosphodiesterase activity facilitating cAMP measurements. HTRF (Homogenous Time Resolved Fluorescence) technology was used to detect cAMP due to its great sensitivity.
# In summary, OVCAR5 were grown in regular medium (RPMI) containing 10% fetal calf serum (FCS) and 1% antibiotics (penicillin/streptomycin).
# Before the experiments, cells were detached with accutase and incubated for 40 minutes at 37° C. with 1 mM (3-isobutyl-1-methylxanthine) IBMX.
# Cells were then distributed in 384 black well plates containing increasing concentrations of the different peptides in a fix volume of medium (without FCS).
# After an incubation of 30 min at 37° C. in an humid incubator in 5% CO2, the reaction was stopped by adding a fixed volume of a solution containing a lysis buffer and cAMP-D2 (cAMP labeled with the dye d2) and the anti cAMP antibody linked to Europium and used for cAMP detection.
# Readout of the experiment were performed on a fluorimeter allowing HTRF measurement. Activation curves were generated by plotting the intracellular value of cAMP versus log 10 of the compound concentration.
# The 50% activation concentration (EC50) was calculated by nonlinear regression using the sigmoidal dose-response (variable slope) equation with Prism 5 software.
# Emax % was determined as the maximal intracellular value of cAMP for test compound (upper limit of cAMP vs concentration curve) divided by the maximal intracellular value of cAMP for H2-relaxin determined in the same test occasion multiplied by 100. Emax %=100×[cAMPtest cpd]/[cAMPH2-Rlx]
Compound,EC50 [nM],Emax [%]
CCCCCCCCCCCCCCCC(=O)N[C@@H](CCC(=O)N[C@@H](CCC(=O)N[C@@H](CCC(=O)NCCCOCCOCCOCCCNC(=O)CCC(=O)NCCCOCCOCCOCCCNC(=O)CCC(=O)NCCCOCCOCCOCCCNC(=O)CCC(=O)NCCCC[C@H](NC(=O)CNC(=O)[C@H](CCC(=O)O)NC(=O)C(C)(C)NC(=O)C(C)(C)NC(=O)[C@@H](NC(=O)[C@H](CCCCNC(C)=O)NC(=O)[C@H](C)NC(=O)[C@H](CCCNC(=N)N)NC(=O)[C@@H](NC(=O)[C@H](CC(C)C)NC(=O)[C@H](CCC(=O)O)NC(=O)[C@H](CCCNC(=N)N)NC(=O)CNC(=O)[C@H](CCC(=O)O)NC(=O)[C@H](CC(C)C)NC(C)=O)C(C)C)[C@@H](C)CC)C(=O)N[C@@H](CO)C(=O)N[C@H](C(=O)N[C@@H](Cc1c[nH]c2ccccc12)C(=O)N[C@@H](CO)C(=O)NC(C)(C)C(=O)N[C@@H](CCCNC(=N)N)C(=O)N[C@@H](CCCNC(=N)N)C(=O)N[C@@H](CCCCNC(C)=O)C(N)=O)[C@@H](C)O)C(=O)O)C(=O)O)C(=O)O [compound 37] (Ac-LEGRELVRAK(Ac)I[Aib][Aib]EGK([Suc-X1])STWS[Aib]RRK(Ac)-NH2),5.6,98
CCCCCCCCCCCCCCCC(=O)N[C@@H](CCC(=O)N[C@@H](CCC(=O)N[C@@H](CCC(=O)NCCCOCCOCCOCCCNC(=O)CCC(=O)NCCCOCCOCCOCCCNC(=O)CCC(=O)NCCCOCCOCCOCCCNC(=O)CCC(=O)NCCCC[C@H](NC(=O)CNC(=O)[C@H](CCC(=O)O)NC(=O)C(C)(C)NC(=O)C(C)(C)NC(=O)[C@@H](NC(=O)[C@H](CCCCNC(C)=O)NC(=O)[C@H](C)NC(=O)[C@H](CCCNC(=N)N)NC(=O)[C@@H](NC(=O)[C@H](CCCCN)NC(=O)[C@H](CCC(=O)O)NC(=O)[C@H](CCCNC(=N)N)NC(=O)CNC(=O)[C@H](CCC(=O)O)NC(=O)[C@H](CC(C)C)NC(C)=O)C(C)C)[C@@H](C)CC)C(=O)N[C@@H](CO)C(=O)N[C@H](C(=O)N[C@@H](Cc1c[nH]c2ccccc12)C(=O)NC(C)(C)C(=O)N[C@@H](CCCCN)C(=O)N[C@@H](CCCNC(=N)N)C(=O)N[C@@H](C)C(=O)N[C@@H](CCCCNC(C)=O)C(N)=O)[C@@H](C)O)C(=O)O)C(=O)O)C(=O)O [compound 35] (Ac-LEGREKVRAK(Ac)I[Aib][Aib]EGK([Suc-X1])STW[Aib]KRAK(Ac)-NH2),2.33,91
CCCCCCCCCCCCCCCCCC(=O)N[C@@H](CCC(=O)N[C@@H](CCC(=O)N[C@@H](CCC(=O)NCCCOCCOCCOCCCNC(=O)CCC(=O)NCCCOCCOCCOCCCNC(=O)CCC(=O)NCCCC[C@H](NC(=O)CNC(=O)[C@H](CCC(=O)O)NC(=O)C(C)(C)NC(=O)C(C)(C)NC(=O)[C@@H](NC(=O)[C@H](CCCCNC(C)=O)NC(=O)[C@H](C)NC(=O)[C@H](CCCNC(=N)N)NC(=O)[C@@H](NC(=O)[C@H](CCCCN)NC(=O)[C@H](CCC(=O)O)NC(=O)[C@H](CCCNC(=N)N)NC(=O)CNC(=O)[C@H](CCC(=O)O)NC(=O)[C@H](CC(C)C)NC(C)=O)C(C)C)[C@@H](C)CC)C(=O)N[C@@H](CO)C(=O)N[C@H](C(=O)N[C@@H](Cc1ccccc1)C(=O)N[C@@H](CO)C(=O)N[C@@](C)(CCCCN)C(=O)N[C@@H](CCCNC(=N)N)C(=O)N[C@@H](C)C(=O)N[C@@H](CCCCNC(C)=O)C(N)=O)[C@@H](C)O)C(=O)O)C(=O)O)C(=O)O [compound 34] (Ac-LEGREKVRAK(Ac)I[Aib][Aib]EGK([Suc-X4])STFS[αMeK]RAK(Ac)-NH2),0.14,90
CCCCCCCCCCCCCCCCCC(=O)N[C@@H](CCC(=O)N[C@@H](CCC(=O)N[C@@H](CCC(=O)N[C@@H](CCC(=O)NCCCOCCOCCOCCCNC(=O)CCC(=O)NCCCOCCOCCOCCCNC(=O)CCC(=O)NCCCC[C@H](NC(=O)CNC(=O)[C@H](CCC(=O)O)NC(=O)C(C)(C)NC(=O)C(C)(C)NC(=O)[C@@H](NC(=O)[C@H](CCCCNC(C)=O)NC(=O)[C@H](C)NC(=O)[C@H](CCCNC(=N)N)NC(=O)[C@@H](NC(=O)[C@H](CCCCN)NC(=O)[C@H](CCC(=O)O)NC(=O)[C@H](CCCNC(=N)N)NC(=O)CNC(=O)[C@H](CCC(=O)O)NC(=O)[C@H](CC(C)C)NC(C)=O)C(C)C)[C@@H](C)CC)C(=O)N[C@@H](CO)C(=O)N[C@H](C(=O)N[C@@H](Cc1c[nH]c2ccccc12)C(=O)N[C@@H](CO)C(=O)NC(C)(C)C(=O)N[C@@H](CCCNC(=N)N)C(=O)N[C@@H](CCCCN)C(=O)N[C@@H](CCCCNC(C)=O)C(N)=O)[C@@H](C)O)C(=O)O)C(=O)O)C(=O)O)C(=O)O [compound 54] (Ac-LEGREKVRAK(Ac)I[Aib][Aib]EGK([Suc-X14])STWS[Aib]RKK(Ac)-NH2),0.16,96

# The next lines start with the values.
EC50 [nM],Emax [%],Compound
0.18,96,CCCCCCCCCCCCCCCC(=O)N[C@@H](CCC(=O)N[C@@H](CCC(=O)N[C@@H](CCC(=O)NCCCOCCOCCOCCCNC(=O)CCC(=O)NCCCOCCOCCOCCCNC(=O)CCC(=O)NCCCOCCOCCOCCCNC(=O)CCC(=O)NCCCC[C@H](NC(=O)CNC(=O)[C@H](CCC(=O)O)NC(=O)C(C)(C)NC(=O)C(C)(C)NC(=O)[C@@H](NC(=O)[C@H](CCCCNC(C)=O)NC(=O)[C@H](C)NC(=O)[C@H](CCCNC(=N)N)NC(=O)[C@@H](NC(=O)[C@H](CCCNC(=N)N)NC(=O)[C@H](CCC(=O)O)NC(=O)[C@H](CCCNC(=N)N)NC(=O)CNC(=O)[C@H](CCC(=O)O)NC(=O)[C@H](CC(C)C)NC(C)=O)C(C)C)[C@@H](C)CC)C(=O)N[C@@H](CO)C(=O)N[C@H](C(=O)N[C@@H](Cc1ccccc1)C(=O)N[C@@H](CO)C(=O)NC(C)(C)C(=O)N[C@@H](CCCNC(=N)N)C(=O)N[C@@H](CCCNC(=N)N)C(=O)N[C@@H](CCCCNC(C)=O)C(N)=O)[C@@H](C)O)C(=O)O)C(=O)O)C(=O)O [compound 76] (Ac-LEGRERVRAK(Ac)I[Aib][Aib]EGK([Suc-X1])STFS[Aib]RRK(Ac)-NH2)
0.88,98,CCCCCCCCCCCCCCCC(=O)N[C@@H](CCC(=O)N[C@@H](CCC(=O)N[C@@H](CCC(=O)NCCCOCCOCCOCCCNC(=O)CCC(=O)NCCCOCCOCCOCCCNC(=O)CCC(=O)NCCCOCCOCCOCCCNC(=O)CCC(=O)NCCCC[C@H](NC(=O)CNC(=O)[C@H](CCC(=O)O)NC(=O)C(C)(C)NC(=O)C(C)(C)NC(=O)[C@@H](NC(=O)[C@H](CCCCNC(C)=O)NC(=O)[C@H](C)NC(=O)[C@H](CCCNC(=N)N)NC(=O)[C@@H](NC(=O)[C@H](CCCCN)NC(=O)[C@H](CCC(=O)O)NC(=O)[C@H](CCCNC(=N)N)NC(=O)CNC(=O)[C@H](CCC(=O)O)NC(=O)[C@H](CC(C)C)NC(C)=O)C(C)C)[C@@H](C)CC)C(=O)N[C@@H](CO)C(=O)N[C@H](C(=O)N[C@@H](Cc1c[nH]c2ccccc12)C(=O)N[C@@H](CO)C(=O)NC(C)(C)C(=O)N[C@@H](CCCNC(=N)N)C(=O)N[C@@H](CCCCNC(C)=O)C(=O)N[C@@H](CCCCN)C(N)=O)[C@@H](C)O)C(=O)O)C(=O)O)C(=O)O [compound 68] (Ac-LEGREKVRAK(Ac)I[Aib][Aib]EGK([Suc-X1])STWS[Aib]RK(Ac)K-NH2)
